Test results as given in ChEMBL document CHEMBL1158151, “Cactus Alkaloids. XXXIX. A Glucotetrahydroiosquinoline From the Mexican Cactus, Pterocereus gaumeri” (1979).
≈ marks a conversion by molar mass, not a printed value.

Assay: Cytotoxicity against human 9KB cells
Assay type: functional
Conditions: read-out: ED50 (the source's name)

| SMILES | EC50 [µg/mL] |
| --- | --- |
| COc1cc2c(c(O[C@@H]3O[C@H](CO)[C@@H](O)[C@H](O)[C@H]3O)c1OC)CCN(C)C2CO (some centres not stated) [PTEROCEREINE] | > 100 |
| COc1cc2c(c(O)c1OC)CCN(C)C2CO (configuration not stated) [DEGLUCOPTEROCEREINE] | 16 (≈ 63.2 µM) |
